Measured values taken from PubChem BioAssay AID1963840 (Molecular Pharmacology Branch, DTP, NCI, 2024).

System: 695427-040-R-J1-PDC complex spheroid viability
Assay: Anticancer human tumor 695427-040-R-J1-PDC patient-derived colon adenocarcinoma cell line growth inhibition [POLQ]
Conditions: for IC50: curve of first compound; for viability, T/C: stronger effect = lower value
In short: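 Complex spheroid viability model combining PDC tumour cells with endothelial (HUVEC) and MSC stromal cells. Novobiocin, ART-558 or RP6685 were tested singly and in combination with standard and investigational anticancer drugs. Each was titrated in half-log steps from near clinical Cmax, or from 10 microM where Cmax was unknown.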

[1] = second compound 0.0316 µM, first compound 0.0316 µM
[2] = second compound 0.0316 µM, first compound 0.1 µM
[3] = second compound 0.0316 µM, first compound 0.316 µM
[4] = second compound 0.0316 µM, first compound 1 µM
[5] = second compound 0.1 µM, first compound 0.0316 µM
[6] = second compound 0.1 µM, first compound 0.1 µM
[7] = second compound 0.1 µM, first compound 0.316 µM
[8] = second compound 0.1 µM, first compound 1 µM
[9] = second compound 0.316 µM, first compound 0.0316 µM
[10] = second compound 0.316 µM, first compound 0.1 µM
[11] = second compound 0.316 µM, first compound 0.316 µM
[12] = second compound 0.316 µM, first compound 1 µM
[13] = second compound 1 µM, first compound 0.0316 µM
[14] = second compound 1 µM, first compound 0.1 µM
[15] = second compound 1 µM, first compound 0.316 µM
[16] = second compound 1 µM, first compound 1 µM
[17] = second compound 3.16 µM, first compound 0.0316 µM
[18] = second compound 3.16 µM, first compound 0.1 µM
[19] = second compound 3.16 µM, first compound 0.316 µM
[20] = second compound 3.16 µM, first compound 1 µM
[21] = second compound 10 µM, first compound 0.0316 µM
[22] = second compound 10 µM, first compound 0.1 µM
[23] = second compound 10 µM, first compound 0.316 µM
[24] = second compound 10 µM, first compound 1 µM
[25] = second compound 0.0316 µM, first compound 3.16 µM
[26] = second compound 0.0316 µM, first compound 10 µM
[27] = second compound 0.1 µM, first compound 3.16 µM
[28] = second compound 0.1 µM, first compound 10 µM
[29] = second compound 0.316 µM, first compound 3.16 µM
[30] = second compound 0.316 µM, first compound 10 µM
[31] = second compound 1 µM, first compound 3.16 µM
[32] = second compound 1 µM, first compound 10 µM
[33] = second compound 3.16 µM, first compound 3.16 µM
[34] = second compound 3.16 µM, first compound 10 µM
[35] = second compound 10 µM, first compound 3.16 µM
[36] = second compound 10 µM, first compound 10 µM
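Further: spheroids exposed to compounds for seven days.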
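Wherever viability, T/C is given: 100% = DMSO vehicle control viability.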

`CCc1c2c(nc3ccc(O)cc13)-c1cc3c(c(=O)n1C2)COC(=O)[C@]3(O)CC` + Nc1ccc(C#CCN(C(=O)Cc2ncc(C(F)(F)F)cc2C(F)(F)F)c2ccc(F)cc2)nn1 was tested, and the IC50 (second compound 0.0316 µM) was > 1 µM, the IC50 (second compound 0.1 µM) was > 1 µM and the IC50 (second compound 0.316 µM) was > 1 µM. The IC50 (second compound 1 µM) was > 1 µM, the IC50 (second compound 3.16 µM) was > 1 µM and the IC50 (second compound 10 µM) was > 1 µM. For the same compound, the viability, T/C (second compound 0.0316 µM, first compound 0.00316 µM) was 116%, the viability, T/C (second compound 0.0316 µM, first compound 0.01 µM) was 102% and the viability, T/C [1] was 89.6%. The viability, T/C [2] was 90.8%, the viability, T/C [3] was 81.2% and the viability, T/C [4] was 69.9%. For the same compound, the viability, T/C (second compound 0.1 µM, first compound 0.00316 µM) was 114%, the viability, T/C (second compound 0.1 µM, first compound 0.01 µM) was 107% and the viability, T/C [5] was 95.7%. For the same compound, the viability, T/C [6] was 93.5%, the viability, T/C [7] was 81.2% and the viability, T/C [8] was 60%. The viability, T/C (second compound 0.316 µM, first compound 0.00316 µM) was 117%, the viability, T/C (second compound 0.316 µM, first compound 0.01 µM) was 109% and the viability, T/C [9] was 85.3%. For the same compound, the viability, T/C [10] was 92.6%, the viability, T/C [11] was 85.8% and the viability, T/C [12] was 68.3%. It also gave a viability, T/C (second compound 1 µM, first compound 0.00316 µM) of 107%, a viability, T/C (second compound 1 µM, first compound 0.01 µM) of 98.7% and a viability, T/C [13] of 88.4%. It also gave a viability, T/C [14] of 85.3%, a viability, T/C [15] of 83.6% and a viability, T/C [16] of 52.5%. For the same compound, the viability, T/C (second compound 3.16 µM, first compound 0.00316 µM) was 101%, the viability, T/C (second compound 3.16 µM, first compound 0.01 µM) was 99.2% and the viability, T/C [17] was 97.9%. It also gave a viability, T/C [18] of 92%, a viability, T/C [19] of 77% and a viability, T/C [20] of 60.6%. The viability, T/C (second compound 10 µM, first compound 0.00316 µM) was 101%, the viability, T/C (second compound 10 µM, first compound 0.01 µM) was 94.8% and the viability, T/C [21] was 86.7%. The viability, T/C [22] was 85%, the viability, T/C [23] was 72.7% and the viability, T/C [24] was 57.1%.
With `Nc1ccn(C2OC(CO)C(O)C2(F)F)c(=O)n1` (stereo not drawn) + Nc1ccc(C#CCN(C(=O)Cc2ncc(C(F)(F)F)cc2C(F)(F)F)c2ccc(F)cc2)nn1 the IC50 (second compound 0.0316 µM) was > 10 µM, the IC50 (second compound 0.1 µM) was > 10 µM and the IC50 (second compound 0.316 µM) was > 10 µM. For the same compound, the IC50 (second compound 1 µM) was > 10 µM, the IC50 (second compound 3.16 µM) was > 10 µM and the IC50 (second compound 10 µM) was > 10 µM. It also gave a viability, T/C [1] of 103%, a viability, T/C [2] of 92.8% and a viability, T/C [3] of 92.1%. The viability, T/C [4] was 91.3%, the viability, T/C [25] was 81.8% and the viability, T/C [26] was 66.6%. For the same compound, the viability, T/C [5] was 98%, the viability, T/C [6] was 96.1% and the viability, T/C [7] was 90.8%. For the same compound, the viability, T/C [8] was 81.3%, the viability, T/C [27] was 80.4% and the viability, T/C [28] was 62.2%. For the same compound, the viability, T/C [9] was 106%, the viability, T/C [10] was 102% and the viability, T/C [11] was 75.9%. It also gave a viability, T/C [12] of 78%, a viability, T/C [29] of 79% and a viability, T/C [30] of 68.1%. For the same compound, the viability, T/C [13] was 104%, the viability, T/C [14] was 90.9% and the viability, T/C [15] was 89.4%. It also gave a viability, T/C [16] of 78.8%, a viability, T/C [31] of 80.7% and a viability, T/C [32] of 63.7%. It also gave a viability, T/C [17] of 102%, a viability, T/C [18] of 93.3% and a viability, T/C [19] of 85.1%. The viability, T/C [20] was 84.8%, the viability, T/C [33] was 83.7% and the viability, T/C [34] was 65.8%. It also gave a viability, T/C [21] of 92.5%, a viability, T/C [22] of 86.7% and a viability, T/C [23] of 82.3%. The viability, T/C [24] was 84.6%, the viability, T/C [35] was 89.2% and the viability, T/C [36] was 73.9%.
`O=C(c1cc(Cc2n[nH]c(=O)c3ccccc23)ccc1F)N1CCN(C(=O)C2CC2)CC1` + Nc1ccc(C#CCN(C(=O)Cc2ncc(C(F)(F)F)cc2C(F)(F)F)c2ccc(F)cc2)nn1 was tested, and the IC50 (second compound 0.0316 µM) was > 10 µM, the IC50 (second compound 0.1 µM) was > 10 µM and the IC50 (second compound 0.316 µM) was > 10 µM. For the same compound, the IC50 (second compound 1 µM) was > 10 µM, the IC50 (second compound 3.16 µM) was > 10 µM and the IC50 (second compound 10 µM) was > 10 µM. For the same compound, the viability, T/C [1] was 106%, the viability, T/C [2] was 104% and the viability, T/C [3] was 101%. For the same compound, the viability, T/C [4] was 103%, the viability, T/C [25] was 110% and the viability, T/C [26] was 106%. It also gave a viability, T/C [5] of 108%, a viability, T/C [6] of 103% and a viability, T/C [7] of 105%. It also gave a viability, T/C [8] of 112%, a viability, T/C [27] of 103% and a viability, T/C [28] of 102%. For the same compound, the viability, T/C [9] was 99.9%, the viability, T/C [10] was 102% and the viability, T/C [11] was 102%. The viability, T/C [12] was 103%, the viability, T/C [29] was 114% and the viability, T/C [30] was 102%. For the same compound, the viability, T/C [13] was 103%, the viability, T/C [14] was 100% and the viability, T/C [15] was 98.7%. The viability, T/C [16] was 95.9%, the viability, T/C [31] was 113% and the viability, T/C [32] was 106%. It also gave a viability, T/C [17] of 103%, a viability, T/C [18] of 97.7% and a viability, T/C [19] of 99.9%. It also gave a viability, T/C [20] of 103%, a viability, T/C [33] of 117% and a viability, T/C [34] of 104%. It also gave a viability, T/C [21] of 95.8%, a viability, T/C [22] of 105% and a viability, T/C [23] of 107%. For the same compound, the viability, T/C [24] was 96.6%, the viability, T/C [35] was 97.6% and the viability, T/C [36] was 96.1%.
With `O=c1[nH]cc(F)c(=O)[nH]1` + Nc1ccc(C#CCN(C(=O)Cc2ncc(C(F)(F)F)cc2C(F)(F)F)c2ccc(F)cc2)nn1 the IC50 (second compound 0.0316 µM) was > 10 µM, the IC50 (second compound 0.1 µM) was > 10 µM and the IC50 (second compound 0.316 µM) was > 10 µM. The IC50 (second compound 1 µM) was > 10 µM, the IC50 (second compound 3.16 µM) was > 10 µM and the IC50 (second compound 10 µM) was > 10 µM. The viability, T/C [1] was 111%, the viability, T/C [2] was 111% and the viability, T/C [3] was 98.8%. The viability, T/C [4] was 102%, the viability, T/C [25] was 112% and the viability, T/C [26] was 106%. For the same compound, the viability, T/C [5] was 111%, the viability, T/C [6] was 106% and the viability, T/C [7] was 95.1%. For the same compound, the viability, T/C [8] was 106%, the viability, T/C [27] was 111% and the viability, T/C [28] was 100%. It also gave a viability, T/C [9] of 110%, a viability, T/C [10] of 105% and a viability, T/C [11] of 99.5%. It also gave a viability, T/C [12] of 112%, a viability, T/C [29] of 106% and a viability, T/C [30] of 90.9%. The viability, T/C [13] was 104%, the viability, T/C [14] was 98.8% and the viability, T/C [15] was 90.5%. The viability, T/C [16] was 107%, the viability, T/C [31] was 107% and the viability, T/C [32] was 99.1%. The viability, T/C [17] was 98.7%, the viability, T/C [18] was 107% and the viability, T/C [19] was 97.6%. The viability, T/C [20] was 93.2%, the viability, T/C [33] was 103% and the viability, T/C [34] was 108%. The viability, T/C [21] was 110%, the viability, T/C [22] was 103% and the viability, T/C [23] was 98%. It also gave a viability, T/C [24] of 97.5%, a viability, T/C [35] of 96.7% and a viability, T/C [36] of 101%.
